Test results taken from patent US20060228313A1, “Method of cosmetic depigmentation care by applying at least one aurone” (Coletica, priority 2005, published 2006).

Assays:
normal human melanocytes = experiment: Cytotoxicity on normal human melanocytes, PNPP determination; assay type: cell-based; conditions: 24 hours
Procedure: The cytotoxicity of the actives is studied on normal human melanocytes in a 24-well plate by a determination with PNPP(P-nitrophenyl phosphate), a substance which is converted into p-nitrophenol by the intracellular acid phosphatases of viable cells.
The absorbance of p-nitrophenol at 405 nm is directly proportional to the number of viable cells.
The actives are tested at 2 different concentrations (10^−4 M and 10^−5 M) and are added to the culture medium and are incubated at 37° C. for 24 hours. The determination with PNPP is carried out on a cell mat and the results are expressed as a percentage viability with respect to the negative control (non-treated wells).

Human tyrosinase = target: T1, Human tyrosinase (Homo sapiens, UniProt P14679); experiment: Inhibition of human tyrosinase in a monolayer after application of the actives on normal human melanocytes; assay type: cell-based; conditions: for Inhibition of human tyrosinase after application on normal human melanocytes, percentage inhibition: 24 hours; for Inhibition of human tyrosinase on normal human melanocytes, result in words: model of Example 15
T1 construct: Normal human melanocytes (originating from abdominal plasty) are sown in a 24-well plate; endogenous in cells; host or cells: normal human melanocytes (abdominal plasty; donors of light, brown and black phototype)
T1 sequence (P14679 19-529): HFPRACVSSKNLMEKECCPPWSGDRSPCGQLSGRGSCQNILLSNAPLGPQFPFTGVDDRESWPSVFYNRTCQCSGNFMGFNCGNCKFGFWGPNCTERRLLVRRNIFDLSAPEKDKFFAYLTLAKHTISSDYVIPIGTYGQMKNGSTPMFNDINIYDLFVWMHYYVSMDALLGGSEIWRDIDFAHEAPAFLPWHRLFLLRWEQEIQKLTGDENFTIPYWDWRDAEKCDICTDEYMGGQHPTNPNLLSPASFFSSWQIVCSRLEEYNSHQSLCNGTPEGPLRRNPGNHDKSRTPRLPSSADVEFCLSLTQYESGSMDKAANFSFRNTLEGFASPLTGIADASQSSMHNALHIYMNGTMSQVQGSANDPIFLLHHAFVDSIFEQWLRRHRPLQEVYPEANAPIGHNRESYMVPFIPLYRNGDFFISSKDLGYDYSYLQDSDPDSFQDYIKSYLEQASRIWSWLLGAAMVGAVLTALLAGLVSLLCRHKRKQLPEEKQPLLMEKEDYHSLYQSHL
Procedure: Normal human melanocytes (originating from abdominal plasty) are sown in a 24-well plate at the rate of 80,000 cells per well. They are cultivated up to confluence and the actives are applied for 24 hours in the culture media. After 24 hours, the media are removed and the melanocytes are picked up by mechanical action. An extraction is made by heat shock and the supernatants are then recovered and then incubated with MBTH (Sigma) and L-Dopa (Sigma). The OD at 490 nm is measured after 30 minutes, and the inhibition is of the tyrosinase is calculated by comparing the OD at 490 nm to the protein level (measured in each culture well) of the test with respect to the ratio: OD 490 nm/concentration of protein of the negative control (non-treated control). […]

Compound	Percentages viability on normal human melanocytes (normal human melanocytes; 10^−4 M)	Percentages viability on normal human melanocytes (normal human melanocytes; 10^−5 M)	Inhibition of human tyrosinase after application on normal human melanocytes, percentage inhibition (Human tyrosinase; 10^−5M)	Inhibition of human tyrosinase on normal human melanocytes, result in words (Human tyrosinase)	Inhibition of human tyrosinase on normal human melanocytes, result in words (Human tyrosinase; listed as compound 9b)	Inhibition of human tyrosinase after application on normal human melanocytes, percentage inhibition (Human tyrosinase; 10^−4M)
COc1cc(OC)c2c(c1)O/C(=C\c1ccc(SC)cc1)C2=O [Example 5c, (Z)-4,6-dimethoxy-2-(4′-methylthiobenzylidene)benzofuran-3(2H)-one]	80.08%	136.13%				
COc1cc(O)c2c(c1)O/C(=C\c1ccccc1)C2=O [Example 6, (Z)-2-Benzylidene-4-hydroxy-6-methoxybenzofuran-3(2H)-one]		121.56%				
CCc1ccc(/C=C2\Oc3cc(O)cc(O)c3C2=O)cc1 [Example 7b]	63.52%	143.15%	4.52%			
O=C1/C(=C/c2ccc(O)cc2)Oc2cc(O)cc(O)c21 [Example 9b, (Z)-4,6-Dihydroxy-2-(4′-hydroxybenzylidene)benzofuran-3(2H)-one]	90.31%	128.39%		particularly active	high efficiency	
COc1cc(O)c2c(c1)O/C(=C\c1ccc(SC)cc1)C2=O [Example 6c]		116.24%	14.19%			
COc1cc(OC)c2c(c1)OCC2=O [Example 4, 4,6-Dimethoxybenzofuran-3(2H)-one]	106.77%	85.33%				
COc1cc(OC)c2c(c1)O/C(=C\c1ccc(O)cc1)C2=O [Example 5a, (Z)-4,6-dimethoxy-2-(4′-hydroxybenzylidene)benzofuran-3(2H)-one]	104.53%	90.87%				
Cc1cc(/C=C2\Oc3cc(O)cc(O)c3C2=O)oc1C [Example 7o, (Z)-4,6-Dihydroxy-2-[(4,5-dimethylfuran)methylene]benzofuran-3(2H)-one]			4.5%			13.6%
COc1cc(OC)c2c(c1)O/C(=C\c1ccc(S(=O)(=O)O)cc1S(=O)(=O)O)C2=O [Example 5f, (Z)-4,6-dimethoxy-2-(2′,4′-disulfonatebenzylidene)benzofuran-3(2H)-one]			2.88%			9.36%
CCc1ccc(/C=C2\Oc3cc(O)ccc3C2=O)cc1 [Example 3a, (Z)-2-(4′-Ethyl)Benzylidene-6-Hydroxybenzofuran-3(2H)-one]			23.9%			0%
O=C1/C(=C/c2cccs2)Oc2cc(O)cc(O)c21 [Example 7p, (Z)-4,6-Dihydroxy-2-[(thiophene)methylene]benzofuran-3(2H)-one]			15.3%			35.2%
CCc1ccc(/C=C2\Oc3cc(O)cc(O)c3C2=O)o1 [Example 7n, (Z)-4,6-Dihydroxy-2-[(5-ethylfuran)methylene]benzofuran-3(2H)-one]			13.4%			28.5%
O=c1cc(-c2ccc(O)cc2)oc2cc(O)cc(O)c12 [Apigenin, reference compound]				do not inhibit tyrosinase		
COc1cc(OC)c2c(c1)O/C(=C\c1ccc(C#N)cc1)C2=O [Example 5d, (Z)-2-(4′-cyanobenzylidene)-4,6-dimethoxybenzofuran-3(2H)-one]	98.93%	96.51%				
COc1cc(OC)c2c(c1)O/C(=C\c1ccc[nH]1)C2=O [Example 5s, (Z)-4,6-Dimethoxy-2-[(pyrrole)methylene]benzofuran-3(2H)-one]			0%			13.7%
O=C1/C(=C/c2ccccc2O)Oc2cc(O)cc(O)c21 [Example 9c]			4.32%			12.85%
COc1cc(OC)c2c(c1)O/C(=C\c1ccco1)C2=O [Example 5m, (Z)-4,6-Dimethoxy-2-[(furan)methylene]benzofuran-3(2H)-one]			6.4%			19.5%
COc1cc(O)c2c(c1)O/C(=C\c1ccc(C#N)cc1)C2=O [Example 6d]	85.65%	119.36%	0%			2.31%
Cc1cc(C)c(/C=C2\Oc3cc(O)cc(O)c3C2=O)[nH]1 [Example 7t, (Z)-4,6-Dihydroxy-2-[(3,5-dimethylpyrrole)methylene]benzofuran-3(2H)-one]			0%			26.4%
CCc1ccc(/C=C2\Oc3cc(OC)cc(OC)c3C2=O)o1 [Example 5n, (Z)-4,6-Dimethoxy-2-[(5-ethylfuran)methylene]benzofuran-3(2H)-one]			0%			7.8%
CCc1ccccc1/C=C1\Oc2cc(O)ccc2C1=O [Example 3b, (Z)-2-(2′-Ethyl)Benzylidene-6-Hydroxybenzofuran-3(2H)-one]			0%			0%
4,6-Dihydroxybenzofuran-3(2H)-one (R1=OH) and 6-Hydroxybenzofuran-3(2H)-one (R1=H) [Example 2]	103.84%	126.09%	9.69%			
COc1cc(OC)c2c(c1)O/C(=C\c1ccccc1)C2=O [Example 5, (Z)-2-Benzylidene-4,6-dimethoxybenzofuran-3(2H)-one]	83.1%	98.55%				
CCCc1ccc(/C=C2\Oc3cc(O)cc(O)c3C2=O)cc1 [Example 7h]			26.88%			5.43%
CCc1ccc(/C=C2\Oc3cc(OC)cc(OC)c3C2=O)cc1 [Example 5b, (Z)-4,6-dimethoxy-2-(4′-ethylbenzylidene)benzofuran-3(2H)-one]		99.62%				
